The values that follow come from patent US6342492B1, “Anti-viral triaza compounds and compositions” (The Research Foundation of State University of New York, priority 1995, dated 2002).

Where two headings read alike, the source gives them in different places. A value given as a limit tells only on which side of the number the result lay.

Data set [1] deals with human cytomegalovirus (HCMV). The data set can be described thus: Antiviral testing against human cytomegalovirus (Example 5). The format is cell-based. To be noted: concentration causing 50% protection against virus, PDR = poor dose response.
In data set [2] the test system is herpes simplex virus (HSV). The data set can be described thus: Antiviral testing against herpes simplex virus (Example 5). To be noted: concentration causing 50% protection against virus, PDR = poor dose response. The format is cell-based.
Data set [3] deals with rous sarcoma virus. The experiment in a line: Antiviral testing against rous sarcoma virus (Example 5). The format is cell-based. To be noted: RSV, concentration causing 50% protection against virus, PDR = poor dose response.
Data set [4] concerns influenza virus (FLU WSN). The data set can be described thus: Antiviral testing against influenza virus (Example 5). The format is cell-based. To be noted: FLU WSH, concentration causing 50% protection against virus.
Data set [5] deals with Human Cytomegalovirus. The experiment in a line: Semi-automated CPE-inhibition assay for HCMV in human foreskin fibroblast cells. The format is cell-based. How it is done:
(§1) Additional antiviral testing was carried out to test the efficacy of compounds of the invention against human cytomegalovirus (HCMV) and another herpesvirus, Variecella Zoster Virus(VZV). The compounds tested were compound (1), the HCl salt of compound (1), Compounds 211, 43, 213 and 214.

In data set [6] the test system is human foreskin fibroblast cells. The experiment in a line: Inhibition of cell proliferation (cytotoxicity) in herpesvirus screening. It is filed as cell-based.
The test system of data set [7] is Varicella Zoster Virus. The experiment in a line: Plaque reduction assay for VZV (Ellen strain). The format is cell-based. The method, then:
as §1
(In general: Plaques are areas of infected cells; plaque reduction assays count them against a control.)

For data set [8], the system named is HIV strain MB48. The data set can be described thus: Reverse transcriptase (RT) assay in MT-2 cells, HIV strain MB48. The format is cell-based.
In data set [9] the test system is HIV strain MD48. The data set can be described thus: MAGI assay on HeLa-MAGIC cells (plaque inhibition). The format is cell-based. Particulars: read-out: ED50 MD48/HeLa.
Data set [10] relates to HIV strain 2h, a primary pediatric clinical isolate. The experiment in a line: Protein (p24) assay in PBMC cells with 2h. Particulars: read-out: ED50 2h/PBMC. The format is cell-based.
The test system of data set [11] is Varicella Zaster Virus (VZV). The experiment in a line: Ocular Varicella Zaster Virus infection in rabbits, intravenous therapy. The format is in vivo, rabbit.
Data set [12] in a line: Inhibition of cell proliferation (cytotoxicity) in herpesvirus screening. It is filed as cell-based, human. Particulars: human, human foreskin fibroblast cells.
In data set [13] the test system is Epstein Barr virus (EBV). The experiment in a line: Antiviral screening against Epstein Barr virus. The format is cell-based. Particulars: human gammaherpesvirus 4; read-out: anti-EBV activity EC50.
Data set [14] relates to HIV-1. The experiment in a line: Anti-HIV soluble formazan (XTT tetrazolium) assay in CEM-IW cells. The format is cell-based. The method, then:
(§2) In these tests, the IC50 (50% inhibitory concentration) is the concentration resulting in 50% cellular toxicity. EC50 (median effective concentration) is the compound concentration that reduces infection by 50%. The effectiveness of a compound against a virus is expressed as TI50 (median therapeutic index) which is determined by the ratio IC50/EC50.
(§3) Compounds of the invention were tested to assess the efficacy of the inhibitory effect of the compounds against HIV. The screen was carried out in a soluble formazan assay by the tetrazolium method according to Weislow et al., J. Natl. Cancer Inst. 81:577-586, 1989.
(§4) The compound was dissolved in dimethyl sulfoxide (DMSO) (final conc. less than 0.25%) and then diluted 1:100 in cell culture medium. Because DMSO is toxic to cells at concentration above 1%, the concentration of the compound in DMSO should be at least 10 uM before dilution with aqueous solution. Various concentrations of the compound were tested against HIV-1 in CEM-IW cells. After six days incubation at 37° C. in a 5% carbon dioxide atmosphere, viable cells were analyzed through addition of tetrazolium salt XTT followed by incubation to allow formazan color development. Cell viability was viewed microscopically and detected spectrophotometrically to quantitate formazan production.
A general note: Tetrazolium dyes change colour on reduction, which living cells bring about.

The subject of data set [15] is HIV-1 (IIIB, AZT-resistant, AZT-sensitive, A17, WeJo), HIV-2, SIV. The data set can be described thus: Anti-HIV testing against additional strains (Example 2). The format is cell-based. Particulars: viruses and cell lines listed in Example 2. How it is done: as §3, §4
(§5) Testing was carried out as described in Example 1 against additional HIV strains. The compound CADA was active against the following viruses using the indicated cell lines:
(§6) IIIB strain of HIV-1/MT-4 cell line
(§7) AZT—resistant HIV-1/MT-2 and MT-4 cell lines
(§8) AZT—sensitive HIV-1/MT-4 cell line
A17, a strain of HIV-1 resistant to most of the non-nucleoside reverse transcriptase inhibitors/MT-2 and MT-4 cell lines, […]

Data set [16] has as its system MT-4, CEM, MT-2 cell lines, PBMCs. The experiment in a line: Cell toxicity in testing against additional strains (Example 2). Particulars: Homo sapiens, MT2. The format is cell-based. The method, then: as §2, §5, §6, §7, §8
A17, a strain of HIV-1 resistant to most of the non-nucleoside reverse transcriptase inhibitors/MT-2 and MT-4 cell lines,
WeJo, a clinical isolate of HIV-1/PBMCs (fresh human peripheral blood mononuclear cells).

In data set [17] the test system is HIV-1 Wejo. The data set can be described thus: PBL/HIV-1 Wejo infection. It is filed as cell-based. The text has this: (§9) The studies were based on activity of the compound against HIV-1 in peripheral blood lymphocytes. The results with different solutions and different batches of the compound confirm that the compound is active at submicromolar levels (EC50) and has low cytotoxicity (IC50).

Data set [18] deals with peripheral blood lymphocytes. The data set can be described thus: Cytotoxicity in PBL/HIV-1 Wejo infection assay. The format is cell-based.
Excerpt: as §9

Data set [19] has as its system virus attachment. The data set can be described thus: Attachment (p 24 based). It is filed as cell-based, HIV.
Data set [20] concerns the target T1, HIV reverse transcriptase (Human immunodeficiency virus type 1 group M subtype B, UniProt P04585).
T1 construct: HIV reverse transcriptase
The experiment in a line: RT activity (rA.dT). It is filed as biochemical.

Data set [21] deals with T2, HIV protease (Human immunodeficiency virus type 1 group M subtype B, UniProt P04585).
T2 construct: HIV protease
The experiment in a line: Protease activity (rp HPLC). It is filed as biochemical. To be noted: read-out: Protease Activity (rp HPLC) ID50.

In data set [22] the test system is HIV-1 Ba-L. The data set can be described thus: Mo-MO/HIV-1 Ba-L infection. The format is cell-based. To be noted: Human immunodeficiency virus 1, BAL; fresh.
Data set [23] concerns Mo-MO. The experiment in a line: Cytotoxicity in Mo-MO/HIV-1 Ba-L infection assay. The format is cell-based. To be noted: high test.
In data set [24] the test system is U1/TNF latent infection. The data set can be described thus: Latent infection (U1/TNF). It is filed as cell-based.
Data set [25] relates to cell fusion. The experiment in a line: Cell fusion (mechanism of action studies). The format is cell-based, HIV. To be noted: preliminary mechanism of action studies.
A short description of data set [26]: in vitro. It is filed as in vitro ADME. Particulars: plasma. How it is done: (§10) Additional studies on stability, solubility, formulation and pharmokinetics were carried out. Plasma elimination and urinary recovery from mice following i.v. administeration were examined. Solubility of the compound in human, mouse, rat plasma and plasma ultrafiltrate were examined. Stability of the compound in human urine was determined.

Data set [27] is described as follows: in vitro. The format is in vitro ADME. To be noted: rat, plasma.
The nature of data set [28]: Stability in pH 4.0 buffer. The format is physicochemical. The method, then: as §10
Data set [29] is described as follows: Solubility in human plasma. It is filed as physicochemical. Particulars: plasma or biological fluid, human plasma at 37° C. How it is done:
as §10

Data set [30] is described as follows: Formulation for animal studies in DMSO/normal saline. The format is physicochemical. To be noted: 1:20 mixture of DMSO and normal saline (pH 2.7). The method, then:
as §10

Data set [31] in a line: Plasma elimination in mice after i.v. administration. The format is in vivo. Particulars: mouse plasma, intravenous administration. How it is done:
as §10

Data set [32] has as its system Human Cytomegalovirus. The data set can be described thus: Plaque reduction assay for HCMV. Particulars: read-out: Human Cytomegalovirus EC50 (values in parentheses). It is filed as cell-based.
The mark [33] stands for this setting: inhibit cell proliferation by 50%, HCMV CPE-inhibition screen, read-out: Human Cytomegalovirus CC50.
Setting [34] is: inhibit cell proliferation by 50%, VZV screen, read-out: Varicella Zoster Virus CC50.

Consider `C=C1CN(S(=O)(=O)c2ccc(C)cc2)CCCN(Cc2ccccc2)CCCN(S(=O)(=O)c2ccc(C)cc2)C1.Cl` [1 · HCl], for which the IC50 result in data set [1] (HCMV) is “PDR”; in data set [2], “PDR”; in data set [3] it was “PDR”; in [4], >50 µg/mL. Also, the EC50 in data set [5] was > 160 µM; in [7], 3.4 µM; in data set [8] (Reverse transcriptase (RT) assay in MT-2 cells, read-out: ED50 MB48/MT-2) it was 0.2 µM; in [9] (MAGI assay on HeLa-MAGIC cells (plaque inhibition)) it was 0.1 µM; in data set [10] (Protein (p24) assay in PBMC cells), 0.15 µM. The CC50 in data set [6] (setting [33]) and in data set [6] (setting [34]) was > 160 µM throughout. Moreover, in [11] (By day 5 PI), the “development of iritis and resolution of VZV disease, comparison of therapies” value is on record as “more effective than acyclovir therapy”. The “iris disease (uveitis) development” value in data set [11] (rabbits, intravenous therapy) is reported as “positive therapeutic response”. Also, the “VZV-induced corneal stromal disease development” value in [11] (rabbits, intravenous, CADA-HCl 5 and 10 mg/kg/day, ACV 20 mg/kg/day) was “effective in reducing the development of stromal disease”.

As for `C=C1CN(S(=O)(=O)c2ccc(C)cc2)CCCN(C(=O)OCC)CCCN(S(=O)(=O)c2ccc(C)cc2)C1` [Compound 213, 9-(Ethyloxycarbonyl)-3-methylene-1,5-ditosyl-1,5,9-triazacyclododecane], the EC50 in [5] (Human betaherpesvirus 5) was 3 µM; in data set [7] (Human alphaherpesvirus 3), 170 µM; in data set [13], 6.7 µM. Besides, the CC50 (as a rule, the concentration giving 50% cytotoxicity) is 167 µM in data set [12] (setting [33]); > 180 µM in data set [12] (setting [34]); > 180 µM in data set [12] (with anti-EBV screen, read-out: CC50).

Regarding `C=C1CN(S(=O)(=O)c2ccc(C)cc2)CCCN(Cc2ccccc2)CCCN(S(=O)(=O)c2ccc(C)cc2)C1` [Compound 1, 9-Benzyl-3-methylene-1,5-ditosyl-1,5,9-triazacyclododecane], the EC50 in data set [14] (Human immunodeficiency virus 1, HIV-1(6S)-AZT sensitive, CEM-IW cells, first test) stood at 1.2 µM; in data set [14] (Human immunodeficiency virus 1, second test, another batch, primary screen), 2.4 µM; in data set [15], 2 µM; in data set [17] (Human immunodeficiency virus 1, Batch 1, A) it was 0.55 µM; in data set [17] (Human immunodeficiency virus 1, Batch 1, B), 0.16 µM; in data set [17] (Human immunodeficiency virus 1, Batch 2) it was 0.65 µM. The EC50 in [22] is 1.5 µM; in [5] (Human betaherpesvirus 5), > 34 µM; in data set [7] (Human alphaherpesvirus 3), 5.3 µM; in [8] (Human immunodeficiency virus 1, MT2, read-out: ED50 MB48/MT-2), 0.8 µM; in [9] (Human immunodeficiency virus 1, MAGI), 0.5 µM; in data set [10] (Human immunodeficiency virus 1, PBMC, 2 h), 0.15 µM. The IC50 is > 30 µM in data set [16]; > 100 µM in data set [18] (Batch 1, B); > 100 µM in [18] (Batch 2); > 100 µM in [18] (Lymphocyte, Batch 1, A); 40 µM in data set [21]; > 30 µM in data set [23]. Besides, the IC50 in [1] (HCMV, listed as CADA (1)) is > 50 µg/mL; in data set [1] (Human betaherpesvirus 5, HCMV, read-out: IC50), > 30 µg/mL; in [3] (read-out: IC50), > 30 µg/mL; in data set [4] (listed as CADA (1)) it was > 50 µg/mL; in data set [4] (unidentified influenza virus, WSN) it was > 30 µg/mL. In addition, the Attachment entry in data set [19] is listed as “No Inhibition”. The “RT activity (rA.dT) ID50” value in [20] is “No Inhibition”. Also, the “Latent Infection” value in [24] is “No inhibition”. Also, in data set [25], the “inhibition of cell fusion” value is listed as “does not appear to inhibit”. The half-life – broadly, the time in which the quantity being followed falls by half – in data set [26] (human) was 126 h; in [26] (mouse) it was > 200 h; in data set [27] it was > 200 h; in [28] it was 139 h. Besides, the solubility (commonly the concentration that dissolves in the medium under given conditions) lay in the range of 1 to 2 µg/mL in data set [29] and 2 to 3 µM in data set [29] (conversion of ug/mL). Moreover, the “concentration at which the compound can be formulated” value in [30] was 1200 nM. In data set [31], the “time detectable in plasma” value is recorded as “up to 2 hours”. The CC50 in data set [12] (setting [33]) was 133 µM; in [12] (setting [34]) it was 89 µM.

As to “N-Benzyl-N-[3-(N-2-methyl-2-propenyl-toluenesulfonamido)propyl]-N-(3-toluenesulfonamidopropyl)amine dihydrogen sulfate [Compound 214]”, the results for the EC50 in data set [5], in data set [32] and in [7] were 2.2 µM, 20.5 µM and 25.2 µM, respectively. Moreover, the CC50 was > 150 µM in [6] (setting [33]); 68.5 µM in data set [6] (setting [34]); 147 µM in data set [6] (with HCMV plaque reduction assay, read-out: Human Cytomegalovirus CC50 (values in parentheses)).
